We go through three molecules from ChEMBL document CHEMBL1201862, “PubChem BioAssay data set” (2004).

Calls of active or inactive are those of the source. Bounds are passed on as bounds.

A short description of experiment [1]: mitochondrial function rescue without frataxin homolog – Friedreich's ataxia, plus single-dose screen, dose response (AID 1465).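 Note: yeast depleted of Yfh1p frataxin homolog grown on glycerol needing respiration; WST-1 tetrazolium dye reduction as measure of cellular dehydrogenase metabolic activity.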 Type of experiment: functional.
The nature of experiment [2]: viability of uninfected HEp-2 cells – cell-based, HTS, cytotoxicity control for RSV inhibitor project, dose response (AID 2410). Type of experiment: functional. Particulars: human respiratory syncytial virus.
Experiment [3] deals with Streptococcus sp. 'group A'. The experiment is described as follows: Streptococcus pyogenes SK(-)GAS viability under kanamycin – luminescence, BacTiterGlo, confirmation, counter-screen for streptokinase expression inhibitor project, dose response (AID 1900). Type of experiment: functional, organism-based.
Experiment [4] concerns the target T1, Streptokinase A (Streptococcus pyogenes serotype M1, UniProt P10520).
T1 sequence (P10520 whole entry): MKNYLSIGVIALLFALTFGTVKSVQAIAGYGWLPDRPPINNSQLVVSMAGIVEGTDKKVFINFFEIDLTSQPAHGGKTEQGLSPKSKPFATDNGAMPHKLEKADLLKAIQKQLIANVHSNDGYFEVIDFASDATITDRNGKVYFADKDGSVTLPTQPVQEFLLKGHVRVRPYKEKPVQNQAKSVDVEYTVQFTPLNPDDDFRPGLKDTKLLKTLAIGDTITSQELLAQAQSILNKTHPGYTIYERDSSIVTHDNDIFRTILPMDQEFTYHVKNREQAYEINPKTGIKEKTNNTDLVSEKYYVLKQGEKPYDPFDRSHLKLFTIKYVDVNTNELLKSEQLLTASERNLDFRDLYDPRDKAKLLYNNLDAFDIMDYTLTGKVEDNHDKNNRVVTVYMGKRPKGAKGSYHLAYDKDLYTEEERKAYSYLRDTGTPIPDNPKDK
The experiment is described as follows: viability-normalized secreted streptokinase activity reduction – plasminogen activation absorbance, OD405, dose response (AID 1914).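 Note: secreted streptokinase activity via plasminogen activation per viability signal from cell pellet.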 The format is functional, Streptococcus pyogenes M1 GAS.

Experiment [5] concerns Streptococcus. The experiment is described as follows: GAS UMAA2166 growth inhibition – luminescence, BacTiterGlo, counter-screen for streptokinase expression inhibitor project, dose response (AID 1915).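 Note: potency for reduction of bacterial viability or growth.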 Type of experiment: functional, organism-based. For orientation: Counterscreens check selectivity or assay interference.
For experiment [6], the target named is Keap1/Nrf2 (Homo sapiens, UniProt Q14145). The experiment is described as follows: disruptors of Keap1 binding to Nrf2 peptide – biochemical, fluorescence polarization, cherry-picked samples, dose response (AID 588683). For orientation: Polarisation of emitted light reports the rotation of a fluorescent probe.
Experiment [7] has as its target T2, Type-1 angiotensin II receptor (Homo sapiens, UniProt P30556).
T2 sequence (P30556 whole entry): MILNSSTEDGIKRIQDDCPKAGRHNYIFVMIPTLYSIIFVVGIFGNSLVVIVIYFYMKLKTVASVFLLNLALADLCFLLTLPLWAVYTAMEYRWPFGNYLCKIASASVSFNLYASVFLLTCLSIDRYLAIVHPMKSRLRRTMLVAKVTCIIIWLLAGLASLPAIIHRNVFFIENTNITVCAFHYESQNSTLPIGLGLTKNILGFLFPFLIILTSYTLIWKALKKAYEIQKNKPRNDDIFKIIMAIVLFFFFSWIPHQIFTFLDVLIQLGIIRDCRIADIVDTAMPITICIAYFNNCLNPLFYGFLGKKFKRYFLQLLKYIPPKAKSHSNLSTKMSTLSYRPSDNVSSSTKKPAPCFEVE
The experiment is described as follows: antagonism of angiotensin II type 1 receptor – cell-based, uHTS hits, selectivity assay for APJ receptor antagonist project, dose response (AID 463214).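 Note: antagonist potency against angiotensin II stimulated AT1 response.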 Type of experiment: functional.

In experiment [8] the target is Beta-galactosidase (Escherichia coli, UniProt Q8VNN2). The experiment is described as follows: PubChem AID 485352. Type of experiment: functional.
Chain of Beta-galactosidase (Q8VNN2 whole entry): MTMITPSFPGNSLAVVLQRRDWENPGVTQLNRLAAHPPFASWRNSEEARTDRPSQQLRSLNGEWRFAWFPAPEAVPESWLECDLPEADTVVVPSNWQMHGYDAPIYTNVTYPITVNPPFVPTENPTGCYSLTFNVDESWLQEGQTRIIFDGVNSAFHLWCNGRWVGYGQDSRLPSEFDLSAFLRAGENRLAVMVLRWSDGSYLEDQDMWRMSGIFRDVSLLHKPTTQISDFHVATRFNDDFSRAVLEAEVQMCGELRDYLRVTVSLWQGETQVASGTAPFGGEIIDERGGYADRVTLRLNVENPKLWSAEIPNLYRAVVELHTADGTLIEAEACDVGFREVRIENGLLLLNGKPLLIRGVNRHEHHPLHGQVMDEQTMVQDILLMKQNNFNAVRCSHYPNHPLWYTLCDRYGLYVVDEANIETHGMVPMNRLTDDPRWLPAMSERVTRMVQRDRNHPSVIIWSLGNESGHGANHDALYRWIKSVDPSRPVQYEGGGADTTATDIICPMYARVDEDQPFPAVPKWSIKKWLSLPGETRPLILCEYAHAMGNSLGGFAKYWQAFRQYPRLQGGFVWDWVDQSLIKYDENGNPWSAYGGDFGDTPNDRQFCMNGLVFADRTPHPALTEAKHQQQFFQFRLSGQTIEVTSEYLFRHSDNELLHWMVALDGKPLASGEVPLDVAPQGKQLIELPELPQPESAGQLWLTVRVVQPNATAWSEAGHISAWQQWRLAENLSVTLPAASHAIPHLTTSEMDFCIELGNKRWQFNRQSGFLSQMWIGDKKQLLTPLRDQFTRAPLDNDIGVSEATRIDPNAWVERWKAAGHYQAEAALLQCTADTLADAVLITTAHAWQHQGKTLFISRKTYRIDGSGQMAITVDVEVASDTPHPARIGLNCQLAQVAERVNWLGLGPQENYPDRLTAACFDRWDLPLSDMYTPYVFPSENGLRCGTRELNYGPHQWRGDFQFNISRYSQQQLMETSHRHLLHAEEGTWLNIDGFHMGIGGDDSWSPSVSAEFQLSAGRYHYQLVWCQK

Chain of Keap1/Nrf2 (Q16236 whole entry): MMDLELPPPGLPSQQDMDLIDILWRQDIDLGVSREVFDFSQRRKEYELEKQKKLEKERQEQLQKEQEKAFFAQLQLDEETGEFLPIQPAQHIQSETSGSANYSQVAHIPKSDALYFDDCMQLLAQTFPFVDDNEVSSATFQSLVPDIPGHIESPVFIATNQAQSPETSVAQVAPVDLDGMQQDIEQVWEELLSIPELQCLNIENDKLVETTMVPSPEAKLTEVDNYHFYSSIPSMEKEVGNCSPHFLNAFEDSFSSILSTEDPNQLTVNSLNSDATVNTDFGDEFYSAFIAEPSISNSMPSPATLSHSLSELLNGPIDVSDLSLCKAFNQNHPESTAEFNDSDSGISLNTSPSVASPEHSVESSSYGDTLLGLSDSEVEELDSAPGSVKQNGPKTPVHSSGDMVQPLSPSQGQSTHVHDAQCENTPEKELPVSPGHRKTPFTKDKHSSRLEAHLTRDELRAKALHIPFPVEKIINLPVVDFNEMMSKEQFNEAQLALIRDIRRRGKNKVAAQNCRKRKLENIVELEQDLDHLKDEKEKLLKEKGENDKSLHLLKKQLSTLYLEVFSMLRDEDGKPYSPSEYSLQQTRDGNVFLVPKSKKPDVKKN
Chain of Keap1/Nrf2 (Q14145 whole entry): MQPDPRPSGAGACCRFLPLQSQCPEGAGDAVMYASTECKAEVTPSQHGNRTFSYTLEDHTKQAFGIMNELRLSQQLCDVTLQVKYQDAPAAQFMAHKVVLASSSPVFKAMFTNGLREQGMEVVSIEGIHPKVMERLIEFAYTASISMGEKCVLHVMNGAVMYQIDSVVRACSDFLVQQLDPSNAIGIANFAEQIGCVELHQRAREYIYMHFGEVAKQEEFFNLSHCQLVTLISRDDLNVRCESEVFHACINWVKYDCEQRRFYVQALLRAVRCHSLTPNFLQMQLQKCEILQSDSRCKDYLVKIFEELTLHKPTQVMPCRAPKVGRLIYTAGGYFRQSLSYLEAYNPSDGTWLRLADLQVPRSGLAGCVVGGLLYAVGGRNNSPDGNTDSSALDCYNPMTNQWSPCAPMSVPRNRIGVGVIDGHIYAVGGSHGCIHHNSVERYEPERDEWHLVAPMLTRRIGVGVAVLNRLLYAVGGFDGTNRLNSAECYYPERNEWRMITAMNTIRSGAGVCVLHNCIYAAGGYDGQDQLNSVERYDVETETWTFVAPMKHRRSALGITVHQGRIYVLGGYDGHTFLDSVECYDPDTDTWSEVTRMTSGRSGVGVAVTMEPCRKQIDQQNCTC

As to `O=C1CCCc2oc3c(cc(NS(=O)(=O)c4ccc5c6c(cccc46)C(=O)N5)c4ccccc43)c21`, the EC50 (in general, the concentration needed to bring the measured effect to its halfway point) was > 100 µM (active) in experiment [1], 3.82 µM (active) in experiment [3], > 150 µM (not active) in experiment [4] and > 150 µM (not active) in experiment [5]. Moreover, in experiment [2], the CC50 – broadly, the concentration giving 50% cytotoxicity – is 25.1 µM (active). Moreover, the concentration at half-maximal activity (AC50) – broadly, the concentration giving half of the maximal activity seen – in experiment [6] is 51.2 µM (active).
`O=C1N=C(NS(=O)(=O)Cc2ccccc2)S/C1=C/c1cc([N+](=O)[O-])ccc1O`: the half-inhibitory concentration (IC50) (commonly the concentration at which inhibition is half-maximal) in experiment [7] is 39.9 µM (not active). Further, the EC50 in experiment [8] was > 40 µM (inactive).
`CCC[N+](CC#Cc1ccccc1)(CCC)CC(=O)c1ccc(Cl)cc1`: the IC50 in experiment [7] is listed as > 40 µM (not active). Also, in experiment [8], the EC50 was > 40 µM (inactive).
